What all share (assay type): in vivo
For test [1], the system named is spring wheat, TRZAS Triso. The experiment in a line: Seed treatment with safener; post-emergence herbicide, crop damage. Conditions: for HER effect + SAF [%] (crop damage) / Reduction [%] / Reduction [Difference]: mefenpyr-diethyl 0.5 g a.i./kg seed; for HER effect [%] (crop damage, herbicide without safener): no safener. The text has this: (§1) For safener seed treatment trials, sufficient seed amounts of the respective crops (spring wheat (TRZAS); spring barley (HORVS)) were weighed into screw cap glass bottles with a minimum volume trice of the seeds.
(§2) As a first step, specified safeners formulated as wettable powder (WP) or wettable granules (WG) were weighed out for the required dosages (g a.i./kg seed), corresponding to the seed amounts. The safener amounts were mixed with a coloured slurry blind formulation type, prediluted with milk at 3.5% fat rate (25 mgs slurry formulation plus 2 ml milk per 10 grams of seed). A tube roller was used for coating. The solutions were gradually pipetted each on the rotating seeds followed by coating for min. 3 hours until all liquid had been soaked up by the seeds. Thereafter, the coated seeds were put flat on open trays for drying over night at room temperature.
(§3) Treated seeds were then placed into pots (7 cm diameter) on the surface of sandy loam, pressed down, flat covered with additional soil and finally covered with sandy soil, also pressed down, watered, and kept under good growth conditions in a greenhouse, until the plants had reached 2-leaf-stage (BBCH 12).
(§4) At that stage, post-emergence application of the specified herbicides was done on:
(§5) a) pot sets containing plants with safener-coated seeds as described above,
(§6) b) as a reference, pot sets of plants without seed treatment.
(§7) The herbicides were formulated as wettable powder (WP). Equivalent to the spray area, compound amounts were weighed out and diluted related to the water application rate (300 l/ha) to an aqueous suspension plus additive (1 l/ha MERO). Dosage related equivalents were conventionally sprayed on trays with the potted plants.
(§8) After application, the test plants were kept under good growth conditions in a greenhouse.
(§9) Assessment timings were 10 and 21 days after treatment (DAT) with the herbicide, by visual scoring of the crop damage in % (comparison of untreated with treated plants, either sprayed only with herbicide or with herbicide on plants with treated seeds).

Test [2] relates to spring barley, HORVS Montoya. Described as above. The settings on record: for HER effect + SAF / Reduction [%] / Reduction [Difference]: mefenpyr-diethyl 0.5 g a.i./kg seed.
Excerpt: as §1, §2, §3, §4, §5, §6, §7, §8, §9

Test [3] has as its system spring barley, HORVS Montoya. Briefly: Tank-mix; post-emergence: crop damage by herbicide with/without safener mefenpyr-diethyl. The method, then: (§10) Seeds of crops (spring wheat, TRZAS; spring barley, HORVS; maize, ZEAMA) were placed in sandy loam soil in peat pots, covered with soil and cultivated in a greenhouse under good growth conditions. Two to three weeks after sowing, the test plants were treated at the 1 to 3-leaf stage. The herbicide/safener active compound combinations according to the invention, formulated as wettable powders or emulsion concentrates, and, in parallel tests, the correspondingly formulated individual active compounds were sprayed onto the green parts of the plants in various dosages using an amount of water of 300 l/ha (converted).
(§11) The pots were returned under good growing conditions in a glasshouse and a visual assessment of herbicidal effects was made at intervals from 1 to 3 weeks after herbicide application (DAT=days after treatment). Assessment was on a percentage basis in comparison with untreated control plants (0%=no injury, 100%=complete kill).

Test [4] concerns spring wheat, TRZAS Triso. The description is as above. The method, then: as §10, §11
Where [5] appears, read: HER 8 g a.i./ha post-emergence, 21 DAT.
The mark [6] stands for this setting: HER 32 g a.i./ha post-emergence, 21 DAT.
The mark [7] stands for this setting: herbicide alone 8 g a.i./ha post-emergence, 21 DAT.
[8] abbreviates: herbicide alone 32 g a.i./ha post-emergence, 21 DAT.
The mark [9] stands for this setting: HER 8 g a.i./ha + mefenpyr-diethyl 100 g a.i./ha, 21 DAT.
[10] abbreviates: herbicide alone 8 g a.i./ha, 21 DAT.
Setting [11] is: HER 32 g a.i./ha post-emergence, 10 DAT.
Where [12] appears, read: herbicide alone 32 g a.i./ha post-emergence, 10 DAT.
[13] abbreviates: HER 8 g a.i./ha + mefenpyr-diethyl 50 g a.i./ha, 10 DAT.
The mark [14] stands for this setting: HER 32 g a.i./ha + mefenpyr-diethyl 100 g a.i./ha, 10 DAT.
The mark [15] stands for this setting: herbicide alone 8 g a.i./ha, 10 DAT.
Setting [16] is: herbicide alone 32 g a.i./ha, 10 DAT.
[17] abbreviates: HER 2 g a.i./ha post-emergence, 21 DAT.
Setting [18] is: HER 2 g a.i./ha + mefenpyr-diethyl 50 g a.i./ha, 10 DAT.
Setting [19] is: HER 2 g a.i./ha + mefenpyr-diethyl 50 g a.i./ha, 21 DAT.
Where [20] appears, read: HER 8 g a.i./ha + mefenpyr-diethyl 50 g a.i./ha, 21 DAT.

This note sets out measurements from patent US20230200390A1, “SELECTIVE HERBICIDES BASED ON SUBSTITUTED ISOXAZOLIN CARBOXAMIDES AND MEFENPYR-DIETHYL” (BAYER AKTIENGESELLSCHAFT, priority 2020, published 2023).

Take `COC(=O)C1C=CC(NC(=O)C2(C)CC(c3cc(Cl)cc(C#N)c3)=NO2)C1` (mixture of isomers) [Example 1.23]: in test [1] (21 DAT, HER dose 8 g a.i./ha), the “HER effect + SAF [%] (crop damage)” value is given as 0%; the “Reduction [%]” value came out at 100%; the “Reduction [Difference]” value was found to be 20; the “HER effect [%] (crop damage, herbicide without safener)” value amounted to 20%. In test [2] (setting [5]), the “HER effect + SAF” value is 0%, the “Reduction [%]” value is recorded as 100% and the “Reduction [Difference]” value worked out at 20. In test [2] (setting [6]), the “HER effect + SAF” value was 10%, the “Reduction [%]” value worked out at 67% and the “Reduction [Difference]” value is recorded as 20. In test [2] (setting [7]), this compound returned an HER effect of 20%. Further, in test [2] (setting [8]), the HER effect turned out to be 30%.
Consider `C=CC1(C(=O)NC2CC=C(C(=O)OC)C2)CC(c2cc(F)cc(F)c2)=NO1` (mixture of isomers) [Example 1.60], for which, in test [1] (21 DAT, HER dose 8 g a.i./ha), the “HER effect + SAF [%] (crop damage)” value is 0%; the “Reduction [%]” value came out at 100%; the “Reduction [Difference]” value came to 93; the “HER effect [%] (crop damage, herbicide without safener)” value was determined as 93%. Besides, in test [1] (21 DAT, HER dose 32 g a.i./ha), the “HER effect + SAF [%] (crop damage)” value turned out to be 10%; the “Reduction [%]” value came out at 89%; the “Reduction [Difference]” value was 85; the “HER effect [%] (crop damage, herbicide without safener)” value worked out at 95%. Moreover, in test [2] (setting [5]), the “HER effect + SAF” value is given as 10%, the “Reduction [%]” value is 88% and the “Reduction [Difference]” value stood at 70. Further, in test [2] (setting [7]), the HER effect is recorded as 80%. For the same compound, in test [3] (setting [9]), the “HER effect + SAF” value is 20%, the “Reduction [%]” value is given as 75% and the “Reduction [Difference]” value is listed as 60. Moreover, the HER effect in test [3] (setting [10]) is 80%.
With `C=CCOC(=O)C1CC(NC(=O)C2(C=C)CC(c3cc(C)cc(F)c3)=NO2)CO1` (mixture of isomers) [Example 1.85], the “HER effect + SAF” value is recorded as 30% in test [2] (setting [11]), 0% in test [3] (setting [13]) and 20% in test [3] (setting [14]). Further, the “Reduction [%]” value is listed as 63% in test [2] (setting [11]), 100% in test [3] (setting [13]) and 75% in test [3] (setting [14]). In addition, the “Reduction [Difference]” value in test [2] (setting [11]) is on record as 50; in test [3] (setting [13]) it was 20; in test [3] (setting [14]), 60. For the same compound, the HER effect in test [2] (setting [12]) is listed as 80%; in test [3] (setting [15]), 20%; in test [3] (setting [16]), 80%.
Consider `CSCCOC(=O)C1C=CC(NC(=O)C2(C(F)(F)F)CC(c3cc(F)cc(F)c3)=NO2)C1` (centres unmarked) [Example 1.7], for which the “HER effect + SAF [%] (crop damage)” value is 0% in test [1] (10 DAT, HER dose 2 g a.i./ha) and 40% in test [1] (10 DAT, HER dose 8 g a.i./ha). The “Reduction [%]” value in test [1] (10 DAT, HER dose 2 g a.i./ha) is 100%; in test [1] (10 DAT, HER dose 8 g a.i./ha), 57%; in test [2] (setting [17]), 43%; in test [2] (setting [6]) it was 47%; in test [4] (setting [18]), 100%; in test [4] (setting [13]) it was 25%. Also, the “Reduction [Difference]” value in test [1] (10 DAT, HER dose 2 g a.i./ha) turned out to be 50; in test [1] (10 DAT, HER dose 8 g a.i./ha), 53; in test [2] (setting [17]) it was 30; in test [2] (setting [6]), 45; in test [4] (setting [18]), 50; in test [4] (setting [13]) it was 23. Besides, the “HER effect [%] (crop damage, herbicide without safener)” value in test [1] (10 DAT, HER dose 2 g a.i./ha) was 50%; in test [1] (10 DAT, HER dose 8 g a.i./ha), 93%. The “HER effect + SAF” value in test [2] (setting [17]) turned out to be 40%; in test [2] (setting [6]), 50%; in test [4] (setting [18]), 0%; in test [4] (setting [13]), 70%. Also, the HER effect in test [2] (herbicide alone 2 g a.i./ha post-emergence, 21 DAT) is 70%; in test [2] (setting [8]), 95%; in test [4] (herbicide alone 2 g a.i./ha, 10 DAT), 50%; in test [4] (setting [15]), 93%.
Turning to `COC(=O)C1C=CC(NC(=O)C2(C(F)(F)F)CC(c3cccc(F)c3)=NO2)C1` (centres unmarked) [Example 1.18], the “HER effect + SAF” value in test [2] (setting [11]) is reported as 20%; in test [3] (setting [13]), 0%; in test [3] (setting [14]), 10%. Moreover, the figures for the “Reduction [%]” value in test [2] (setting [11]), in test [3] (setting [13]) and in test [3] (setting [14]) were 75%, 100% and 88%, respectively. Besides, the “Reduction [Difference]” value in test [2] (setting [11]) was 60; in test [3] (setting [13]) it was 20; in test [3] (setting [14]), 70. The HER effect in test [2] (setting [12]) came out at 80%; in test [3] (setting [15]), 20%; in test [3] (setting [16]), 80%.
With `C=CC1(C(=O)NC2C=CC(C(=O)O)C2)CC(c2cc(F)cc(F)c2)=NO1` (centres unmarked) [Example 1.58], the “HER effect + SAF [%] (crop damage)” value in test [1] (21 DAT, HER dose 2 g a.i./ha) worked out at 0%; in test [1] (21 DAT, HER dose 8 g a.i./ha) it was 0%; in test [1] (21 DAT, HER dose 32 g a.i./ha) it was 10%. Moreover, the “Reduction [%]” value is 100% in test [1] (21 DAT, HER dose 2 g a.i./ha); 100% in test [1] (21 DAT, HER dose 8 g a.i./ha); 89% in test [1] (21 DAT, HER dose 32 g a.i./ha); 100% in test [2] (setting [5]); 58% in test [2] (setting [6]); 88% in test [4] (setting [19]). Besides, in test [4] (setting [20]), the “Reduction [%]” value stood at 57%. The “Reduction [Difference]” value came to 85 in test [1] (21 DAT, HER dose 2 g a.i./ha); 93 in test [1] (21 DAT, HER dose 8 g a.i./ha); 83 in test [1] (21 DAT, HER dose 32 g a.i./ha); 95 in test [2] (setting [5]); 55 in test [2] (setting [6]); 75 in test [4] (setting [19]). Moreover, the “Reduction [Difference]” value in test [4] (setting [20]) stood at 53. The “HER effect [%] (crop damage, herbicide without safener)” value in test [1] (21 DAT, HER dose 2 g a.i./ha) stood at 85%; in test [1] (21 DAT, HER dose 8 g a.i./ha), 93%; in test [1] (21 DAT, HER dose 32 g a.i./ha), 93%. The “HER effect + SAF” value in test [2] (setting [5]) is 0%; in test [2] (setting [6]), 40%; in test [4] (setting [19]) it was 10%; in test [4] (setting [20]), 40%. Besides, the HER effect in test [2] (setting [7]) was 95%; in test [2] (setting [8]), 95%; in test [4] (herbicide alone 2 g a.i./ha, 21 DAT), 85%; in test [4] (setting [10]), 93%.
